Like-named read-outs stand apart in the source and are kept apart here.

Series [1] concerns RNVCs. The series can be described thus: Mitochondrial network and cell volume by confocal microscopy (Mitotracker, calcein-AM, IMARIS). The series is classed as cell-based, rat. To be noted: for effect on the mitochondrial network / number of mitochondria: 1 and 10 μM, 6 h. Here is the method: FIG. 6. Effects on mitochondrial dynamics by fluorescence microscopy The RNVCs were treated with 1 μM hits (FIG. 6A) and 10 μM hits (FIG. 6B) for 6 h and the mitochondrial network was stained with 200 nM of Mitotracker. The mitochondrial network and individual mitochondria were then analyzed using a Leica confocal microscope and IMARIS software. Data are presented as mean±SEM with single-factor ANOVA, and multiple Sidak comparisons. *, p<0.05, **, p<0.01, ***, p<0.001 with respect to DMSO.
FIG. 11: following the treatment of the RNVCs with the compounds as indicated, the cell volume was stained with 4 μM of calcein-AM. The cell volume was then analyzed using the IMARIS software.
Confocal microscopy. On day 0, 4×10^5 neonatal cardiomyocytes were plated overnight on laminin-coated 35 mm culture dishes (10 μg/ml). On day 1, the cells were treated with various compounds at 1 or 10 μM for 6 hours. The cells were incubated with Mitotracker Red 580 at 200 nM for 20 minutes at 37° C., then 4 μM of calcein (Calcein AM, Life Technologies, St Aubin, France) for 10 minutes at 37° C. The images were acquired with a Leica confocal microscope (SP5) (Mannheim, Germany). The mitochondrial network and the 3D model of cell volume were reconstructed using the IMARIS software (Bitplane Company, Zurich, Switzerland); therefore the cell volume, mitochondrial number and volume were analyzed.
Due to the importance of mitochondria and reactive oxygen species (ROS) levels in the fate of cardiomyocyte cells, the hypothesis that the compounds could impact the mitochondrial network was explored. Following treatment of the RNVCs with the compounds tested, the mitochondrial network was stained with 200 nM of Mitotracker and the cell volume with 4 μM of calcein-AM. Thus, the mitochondrial network and the individual mitochondria were then analyzed using the IMARIS software.

Series [2] relates to A549 lung cancer cell line. Kind of series: Influence of hits on growth of A549 cancer cells (total LDH after lysis). The series is classed as cell-based. To be noted: 48 h. Here is the method:
The cells were cultured for 6 h in the presence or absence of the hits, and then for 42 h. Finally, the cells were lysed with lysis buffer and the amount of LDH was measured to evaluate the total cell growth.
A colorimetric assay was used to measure lactate dehydrogenase (LDH), a cytosolic enzyme which is released during permeabilization of the plasma membrane (Promega G1780). The assay was performed using cell culture supernatants obtained from H9C2 or RNVC (rat neonatal ventricular myocyte) cells and lysis buffer (LB) was used as a positive control for total cell lysis. The LDH release was measured by absorbance reading at 490 nm (Infinite spectrofluorimeter, Tecan).
The effect of the compounds was then evaluated on primary rat neonatal ventricular cardiomyocytes (RNVCs) using the LDH test and propidium iodide staining. […] The absence of proliferative effects of the compounds was also evaluated on the A549 lung cancer cell line for 48 h (FIG. 2C).

Series [3] concerns H9C2 cells. The series can be described thus: Exogenous fatty acid oxidation (XF palmitate-BSA FAO substrate with mito stress test). The class given is cell-based, rat. The following applies: fatty acids as substrate. Here is the method: FIG. 8C: the oxidation of the exogenous fatty acids was measured simultaneously using the XF palmitate-BSA FAO substrate kit with the mito stress test on XF cells. Before starting the test, 30 μL of XF palmitate-BSA CAM or BSA control substrate were added to the appropriate wells.
The XFe96 extracellular flow analyzer (Seahorse Biosciences, North Billerica, MA, USA) was used to measure the bioenergetic function of H9C2 cardiomyocytes. The H9C2 cells were seeded at 20 000 cells per well in XF96 cell culture microplates; all the pretreatments were carried out with serum-free cell culture medium. The Agilent Seahorse XF glycolysis stress test was performed to measure glycolytic function in the H9C2 cells; the extracellular acidification rate (ECAR) was measured sequentially by 3 injections, 10 mM glucose, 2 μM oligomycin and 50 mM 2-deoxy-D-glucose (2-DG). The Agilent Seahorse XF Cell Mito stress test measured key parameters of mitochondrial function by directly measuring the oxygen consumption rate (OCR) of the H9C2 cells. […] The oxidation of the exogenous fatty acids was measured simultaneously using the XF palmitate-BSA FAO substrate kit with the mitochondrial stress test on XF cells. […]
(§1) Next, the energy metabolism was analyzed in real time using the Seahorse technology in H9C2 cells.

For series [4], the target named is T1, hERG potassium channel (Homo sapiens, UniProt Q12809).
T1 construct: Eurofins
Kind of series: hERG channel binding assay ([3H]dofetilide displacement). The following applies: for inhibition at 10 µM: human, probe [3H]dofetilide. As for the experimental part:
The evaluation of the binding of the compounds to the human hERG potassium channel was carried out as described previously (Eurofins).
Since the blocking of the human potassium channel hERG channel may be responsible for cardiac fibrillation leading to cardiac arrest and death of the patient, the binding of the 3 molecules SG6163F, VP331 and LOPA87 to this receptor was evaluated.
(hERG is a cardiac potassium channel; its block is linked to QT prolongation.)

Series [5] has as its system RNVCs. The series can be described thus: Mitochondrial ROS production with MitoSOX fluorescent probe. The class given is cell-based, rat. To be noted: 1 μM, 6 h. As for the experimental part:
FIG. 12: The RNVCs were treated with 0.1% DMSO, 3 μM rapamycin, 1 μM digitoxigenin, 1 μM digoxin, 1 μM minaprin, 1 μM VP331, 1 μM LOPA87, 10 μM SG6163F for 6 h, then the ROS production was stained with the MitoSOX fluorescent probe.
The RNVCs were treated with 0.01% DMSO, 3 μM rapamycin, […], 1 μM digoxin, 1 μM minaprine, 1 μM VP331, 1 μM LOPA87, 10 μM SG6163F in a serum-free cell culture medium for 6 hours. The contents (50 μg) of a MitoSOX™ mitochondrial superoxide indicator vial (ThermoFisher, M36008) were dissolved in 13 μl dimethyl sulfoxide (DMSO) to prepare a 5 mM MitoSOX™ reagent stock solution. Next, the 5 mM MitoSOX™ reagent stock solution in PBS was diluted to prepare a 5 μM working solution of MitoSOX™ reagent. After treatment, the cells were rinsed twice with hot PBS and then incubated with a MitoSOX reagent working solution for 10 minutes at 37° C. The cells were gently rinsed three times with hot PBS. Red fluorescence was detected with a Leica confocal microscope. Nuclear fluorescence was suppressed and mitochondrial fluorescence intensity was measured using ImageJ software.
ROSs are produced or accumulated as a by-product of mitochondrial activity metabolism. Thus, the ROSs may be a consequence of mitochondrial function or may reflect a defect in the mitochondrial antioxidant system.

Series [6] deals with H9C2 cells. The series can be described thus: Seahorse XF Cell Mito stress test (OCR). The following applies: glucose and pyruvate as substrates, 6 h. The series is classed as cell-based, rat. As for the experimental part:
FIG. 8B: the H9c2 cells were treated with the compounds for 6 h, then a mitochondrial respiration stress test was carried out.
The XFe96 extracellular flow analyzer (Seahorse Biosciences, North Billerica, MA, USA) was used to measure the bioenergetic function of H9C2 cardiomyocytes. The H9C2 cells were seeded at 20 000 cells per well in XF96 cell culture microplates; all the pretreatments were carried out with serum-free cell culture medium. The Agilent Seahorse XF glycolysis stress test was performed to measure glycolytic function in the H9C2 cells; the extracellular acidification rate (ECAR) was measured sequentially by 3 injections, 10 mM glucose, 2 μM oligomycin and 50 mM 2-deoxy-D-glucose (2-DG). The Agilent Seahorse XF Cell Mito stress test measured key parameters of mitochondrial function by directly measuring the oxygen consumption rate (OCR) of the H9C2 cells. The test used the built-in injection ports on XF sensor cartridges to add respiration modulators into the cell well during the test in order to reveal key parameters of mitochondrial function. Oligomycin at 2 μM was injected first after the baseline measurements. Then 1 μM of […] (FCCP) was injected. The third injection corresponds to 0.5 μM of antimycin A, to stop mitochondrial respiration. The oxidation of the exogenous fatty acids was measured simultaneously using the XF palmitate-BSA FAO substrate kit with the mitochondrial stress test on XF cells. The substrate-limited medium is DMEM with 0.5 mM glucose, 1 mM GlutaMAX, 0.5 mM carnitine and 1% fetal calf serum. Carnitine was added freshly on the day of the change of medium. The FAO test medium contains 111 mM NaCl, 4.7 mM KCl, 1.25 mM CaCl2, 2 mM MgSO4, 1.2 mM NaH2PO4, supplemented with 2.5 mM glucose, 0.5 mM carnitine and 5 mM HEPES on the day of the test, adjusted to pH 7.4 at 37° C. The H9C2 cells were seeded at 20 000 cells per well in XF96 cell culture microplates. […]
as §1

Series [7] has as its system LC3II. Kind of series: LC3 I/II conversion by western blot in RNVCs. The series is classed as cell-based, rat. The following applies: rapamycin positive control (3 μM). As for the experimental part: FIG. 4E: LC3-I/II protein levels in the RNVCs. Data are presented as mean±SEM with single-factor ANOVA, and multiple Sidak comparisons. *, p<0.05, **, p<0.01 with respect to DMSO.
The H9C2 cells and RNVCs were detached in LB containing: 50 mM Tris, 150 mM NaCl, 1 mM EDTA, 0.5% deoxycholate, 1% Triton X 100, 0.1% SDS (pH 8.0). The cells were collected and placed on ice for 30 minutes. The cells were then centrifuged at 2000 g for 20 minutes at for 4° C. The supernatant was transferred to a new tube and stored on ice. The protein concentration was determined by BCA assay. The protein samples were diluted with sample buffer (2× Laemmli, Sigma), mixed, and heated for 5 minutes at 95° C. […] The images were recorded with a gel imaging system (Bio Rad). […]
Next, the hypothesis that the compounds could protect cardiac cells by activating autophagy, a catabolic process conserved in evolution that involves the degradation of damaged cytoplasmic components, was formulated. […] Then, the cells were treated with the hits and with H2O2 for 2 hours and their survival was analyzed 4 hours later by measuring LDH release (FIGS. 4B, 4C). […] In order to confirm the induction of autophagy by another approach, the RNVCs were transfected with a GFP-LC3 plasmid and the formation of the autophagosome was monitored 24 hours later. […]
In general terms: In western blotting, separated proteins are transferred to a membrane and probed.

T1 sequence (Q12809 whole entry): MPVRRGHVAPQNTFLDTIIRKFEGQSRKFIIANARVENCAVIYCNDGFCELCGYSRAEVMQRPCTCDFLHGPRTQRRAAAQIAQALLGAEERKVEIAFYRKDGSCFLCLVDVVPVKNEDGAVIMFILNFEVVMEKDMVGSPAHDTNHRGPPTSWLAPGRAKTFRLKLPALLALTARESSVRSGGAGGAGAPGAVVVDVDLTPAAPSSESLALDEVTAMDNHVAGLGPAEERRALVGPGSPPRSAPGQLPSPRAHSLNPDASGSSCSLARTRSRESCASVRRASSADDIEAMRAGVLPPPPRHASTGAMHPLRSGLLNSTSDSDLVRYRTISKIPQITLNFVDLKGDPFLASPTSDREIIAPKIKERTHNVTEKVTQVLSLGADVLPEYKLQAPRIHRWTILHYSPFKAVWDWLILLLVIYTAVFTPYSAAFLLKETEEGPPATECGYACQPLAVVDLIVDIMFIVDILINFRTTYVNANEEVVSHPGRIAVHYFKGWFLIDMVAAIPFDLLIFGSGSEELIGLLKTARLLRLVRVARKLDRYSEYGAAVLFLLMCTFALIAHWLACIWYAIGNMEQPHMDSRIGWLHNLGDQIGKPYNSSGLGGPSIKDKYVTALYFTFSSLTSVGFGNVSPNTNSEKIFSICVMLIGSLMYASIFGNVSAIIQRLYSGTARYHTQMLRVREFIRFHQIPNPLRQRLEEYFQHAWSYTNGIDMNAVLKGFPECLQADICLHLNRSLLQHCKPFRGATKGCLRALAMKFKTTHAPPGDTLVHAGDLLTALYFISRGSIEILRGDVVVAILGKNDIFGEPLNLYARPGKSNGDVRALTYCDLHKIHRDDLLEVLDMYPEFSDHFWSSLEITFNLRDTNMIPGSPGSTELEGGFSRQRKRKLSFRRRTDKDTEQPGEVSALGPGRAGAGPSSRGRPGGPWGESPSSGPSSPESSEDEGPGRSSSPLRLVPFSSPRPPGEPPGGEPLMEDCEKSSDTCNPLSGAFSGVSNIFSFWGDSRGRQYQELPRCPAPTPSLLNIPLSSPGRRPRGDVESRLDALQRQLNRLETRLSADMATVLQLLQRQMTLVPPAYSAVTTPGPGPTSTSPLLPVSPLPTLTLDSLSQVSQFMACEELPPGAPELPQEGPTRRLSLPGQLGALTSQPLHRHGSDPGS

As for `COc1ccc(C)cc1/C=N/[C@@H]1C[C@@H]2C[C@H]([C@H]1C)C2(C)C` [VP331], the “effect on the mitochondrial network” value in series [1] was “no effect”. Besides, the number of mitochondria entry in series [1] is on record as “no effect”. Moreover, the “effect on A549 cell growth” value in series [2] is recorded as “no proliferative effect”. Also, the oxidative phosphorylation entry in series [3] is “improved oxidative phosphorylation”. The inhibition at 10 µM in series [4] (inhibition of tritiated dofetilide binding, only values >50% considered effective, read-out: % inhibit 1st assay) was -4%; in series [4] (inhibition of tritiated dofetilide binding, only values >50% considered effective, read-out: % inhibit 2nd assay), 5.4%; in series [4] (mean of two independent measurements, read-out: % inhibit Mean), 0.7%. In addition, the “binding to the hERG channel” value in series [4] (inhibition of specific binding of [3H]dofetilide in vitro) is “negligible”. In addition, in series [5], the “local level of mitochondrial superoxide anion” value was “induced an elevation”.
With `Cc1cc(-c2ccccc2)nnc1NCCN1CCOCC1` [minaprine], the “ATP production by oxidative phosphorylation (OXPHOS)” value in series [6] was “improved ATP production by oxidative phosphorylation”. Also, in series [1] (10 μM), the mitochondrial mass entry is given as “decreased the mitochondrial mass”. In series [1], the “effect on the mitochondrial network” value is “no effect” and the number of mitochondria result is “no effect”. For the same compound, the “effect on A549 cell growth” value in series [2] was “significantly reduced cell growth and induced cell death”. Further, the “local level of mitochondrial superoxide anion” value in series [5] is “induced an elevation”.
As for `CO[C@H]1C[C@@H]2CC[C@@H](C)[C@@](O)(O2)C(=O)C(=O)N2CCCC[C@H]2C(=O)O[C@H]([C@H](C)C[C@@H]2CC[C@@H](O)[C@H](OC)C2)CC(=O)[C@H](C)/C=C(\C)[C@@H](O)[C@@H](OC)C(=O)[C@H](C)C[C@H](C)/C=C/C=C/C=C/1C` [rapamycin, reference compound], the “increase in level of expression of LC3II” value in series [7] is listed as over 1.4 fold.
